Data on 40 compounds can be found in patent US11236086B2, “Substituted pyrrolopyridines as inhibitors of activin receptor-like kinase” (BLUEPRINT MEDICINES CORPORATION, priority 2017, dated 2022).

Test [1] addresses T1, ALK2R206H (mutant ALK2, N-terminally tagged with GST) (Homo sapiens, UniProt Q04771, R206H).
T1 construct: purchased Carna Bioscience or ThermoFisher 09-148 or PV6232
T1 sequence (Q04771 21-509 R206H): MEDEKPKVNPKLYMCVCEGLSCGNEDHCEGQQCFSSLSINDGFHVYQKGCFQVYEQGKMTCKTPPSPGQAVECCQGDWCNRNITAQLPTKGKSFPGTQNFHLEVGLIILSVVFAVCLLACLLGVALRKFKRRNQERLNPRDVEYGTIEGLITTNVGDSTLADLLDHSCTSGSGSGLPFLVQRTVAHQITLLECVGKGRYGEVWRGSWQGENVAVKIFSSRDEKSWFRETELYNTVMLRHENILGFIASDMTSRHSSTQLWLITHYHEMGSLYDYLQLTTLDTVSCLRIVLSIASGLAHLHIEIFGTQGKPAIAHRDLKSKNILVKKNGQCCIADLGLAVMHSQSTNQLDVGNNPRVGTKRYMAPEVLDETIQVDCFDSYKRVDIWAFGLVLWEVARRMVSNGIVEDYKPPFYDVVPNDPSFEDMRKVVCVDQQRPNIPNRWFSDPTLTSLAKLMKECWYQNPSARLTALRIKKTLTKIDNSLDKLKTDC
As to the kind of experiment: ALK binding assay (LANTHASCREEN TR-FRET competitive binding, displacement of Kinase Tracer 178). Conditions: read-out: Binding Assay (IC50 class). The method in brief: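 GST-tagged ALK2 R206H (2-5 nM) mixed with Eu-anti-GST antibody (4-10 nM), Kinase Tracer 178 (50 nM, near its Kd) and compound titration (1% DMSO) in Kinase Buffer A, 30 min at room temperature. Tracer displacement read as TR-FRET ratio, normalized to controls; IC50 from 4-parameter fit.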
A general note: In TR-FRET formats the signal depends on donor and acceptor labels being close together.

Test [2] concerns the target T2, human ALK2 R206H (Homo sapiens, UniProt Q04771, R206H).
T2 construct: expressed in transfected cells; host or cells: HEK293 (ATCC CRL1573), lentivirus transduction, blasticidin selection
T2 sequence (Q04771 21-509 R206H): T1 sequence (Q04771 21-509 R206H)
As to the kind of experiment: Cell-based ALK2-R206H cell activity assay (Smad1-Ser463/Ser465 phosphorylation by AlphaLISA in HEK293-ALK2-R206H cells). Conditions: phospho-Smad1 AlphaLISA, read-out: Cell Line (Cell Assay, IC50 class). The method in brief:
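HEK293 stable line expressing human ALK2 R206H with C-terminal FLAG, plated overnight in serum-free medium. Cells were treated 2-3 h with compound over 10 3-fold doses, top 10 μM or 1 μM, in duplicate. Phospho-Smad1 Ser463/465 in lysate was read by AlphaLISA; IC50 was normalised to DMSO (0%) and 1 μM LDN193189 (100%).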

On to `Cc1nc(-c2[nH]c3nccc(N4CCN(C(=O)O[C@H]5C[C@@H](F)C5)CC4)c3c2C#N)cn1C` [Compound 356], for which the IC50 (as a rule, the concentration needed to halve the response being measured) in test [1] was at most 10 nM; in test [2] it was at most 100 nM.

For the compound `Cn1cc(-c2[nH]c3nccc(N4CCN(C(=O)[C@H]5C[C@H](C#N)C5)CC4)c3c2Cl)cn1` [Compound 299], the IC50 in test [1] was at most 10 nM; in test [2] it was at most 100 nM.

As for `Cc1nc(-c2[nH]c3nccc(N4CCN(C(=O)OC5CCC5)CC4)c3c2C#N)cs1` [Compound 294], the IC50 in test [1] is at most 10 nM; in test [2] it was at most 100 nM.

On to `Cn1cc(-c2cc3c(N4CCN(C(=O)OC5COC5)CC4)ccnc3[nH]2)nc1Cl` [Compound 275], for which the IC50 was at most 10 nM in test [1] and at most 100 nM in test [2].

With `N#CC1(c2ccc(-c3cc4c(N5CCN(C(=O)C6CC6)CC5)ccnc4[nH]3)c(F)c2)CC1` [Compound 322], the results for the IC50 in test [1] and in test [2] were at most 10 nM and at most 100 nM, respectively.

`Cn1cc(-c2[nH]c3nccc(N4CCN(C(=O)O[C@H]5CCOC5)CC4)c3c2Cl)cn1` [Compound 330]: the IC50 in test [1] was at most 10 nM; in test [2] it was at most 100 nM.

In the case of `C[Si](C)(O)c1ccc(-c2cc3c(N4CCN(C(=O)C5CC5)CC4)ccnc3[nH]2)cc1` [Compound 287], the IC50 is at most 10 nM in test [1] and 100 to 500 nM in test [2].

Regarding `Cc1nc(-c2cc3c(N4CCN(C(=O)O[C@H]5C[C@H](F)C5)CC4)ccnc3[nH]2)cs1` [Compound 260], the IC50 was at most 10 nM in test [1] and at most 100 nM in test [2].

As to `CCCOC(=O)N1CCN(c2ccnc3[nH]c(-c4cnn(C)c4)c(Cl)c23)CC1` [Compound 187], the values for the IC50 in test [1] and in test [2] were at most 10 nM and at most 100 nM, respectively.

As for `CCN1CCN(c2ccc(-c3cc4c(N5CCN(C(=O)C6CC6)CC5)ccnc4[nH]3)c(OC(F)(F)F)c2)CC1` [Compound 477], the IC50 is at most 10 nM in test [1] and at most 100 nM in test [2].

On to `O=C(COc1ccc(-c2cc3c(N4CCN(C(=O)C5CC5)CC4)ccnc3[nH]2)cc1)N1CCC1` [Compound 420], for which the IC50 in test [1] was at most 10 nM; in test [2], 100 to 500 nM.

For the compound `COc1ccc(-c2cc3c(N4CCN(C(=O)C5CC5)CC4)ccnc3[nH]2)cc1` [Compound 60], the IC50 in test [1] is at most 10 nM; in test [2], 100 to 500 nM.

As for `CC(=O)N1CCc2nc(-c3cc4c(N5CCN(C(=O)OC6COC6)CC5)ccnc4[nH]3)sc2C1` [Compound 447], the IC50 in test [1] was at most 10 nM; in test [2], at most 100 nM.

As to `CCOC(=O)N1CCN(c2ccnc3[nH]c(-c4cn(C)nc4F)cc23)CC1` [Compound 51], the IC50 in test [1] was at most 10 nM; in test [2] it was 100 to 500 nM.

For `CCC(=O)N1CCN(c2ccnc3[nH]c(-c4cnn(C)c4)cc23)CC1` [Compound 2], the IC50 in test [1] was at most 10 nM; in test [2], above 500 nM.

`CCOC(=O)N1CCN(c2ccnc3[nH]c(-c4cnn(C)c4)c(F)c23)CC1` [Compound 50]: the IC50 in test [1] is at most 10 nM; in test [2], at most 100 nM.

As for `CCOC(=O)N1CCN(c2ccnc3[nH]c(-c4cnn(C)c4)c(C)c23)CC1` [Compound 38], the IC50 is at most 10 nM in test [1] and at most 100 nM in test [2].

Take `CCOC(=O)N1CCN(c2ccnc3[nH]c(-c4cc(C)n(C)n4)cc23)CC1` [Compound 39]: the IC50 in test [1] is at most 10 nM; in test [2] it was 100 to 500 nM.

Take `CCOC(=O)N1CCN(c2ccnc3[nH]c(-c4cnn(C(C)C)c4)cc23)CC1` [Compound 96]: the IC50 was at most 10 nM in test [1] and at most 100 nM in test [2].

Consider `CCN1CCN(c2ccc(-c3cc4c(N5CCN(C(=O)C6CCC6)CC5)ccnc4[nH]3)cc2)CC1` [Compound 439], for which the IC50 in test [1] was at most 10 nM; in test [2], at most 100 nM.

On to `Cc1c(-c2cc3c(N4CCN(C(=O)OC5COC5)CC4)ccnc3[nH]2)cnn1C(C)C` [Compound 305], for which the IC50 in test [1] is at most 10 nM; in test [2] it was 100 to 500 nM.

Turning to `N#Cc1c(-c2cn(C(F)F)cn2)[nH]c2nccc(N3CCN(C(=O)OC4COC4)CC3)c12` [Compound 375], the 50% inhibitory concentration (IC50) in test [1] was at most 10 nM; in test [2], at most 100 nM.

Take `CCN1CC[C@H](c2ccc(-c3cc4c(N5CCN(C(=O)C6CC6)CC5)ccnc4[nH]3)cc2)C(F)(F)C1` [Compound 459]: the IC50 in test [1] is at most 10 nM; in test [2] it was at most 100 nM.

On to `Cn1cc(-c2[nH]c3nccc(N4CCN(C(=O)O[C@H]5C[C@H](F)C5)CC4)c3c2F)cn1` [Compound 267], for which the IC50 was at most 10 nM in test [1] and at most 100 nM in test [2].

On to `Cc1nc(-c2[nH]c3nccc(N4CCN(C(=O)OC5CCC5(F)F)CC4)c3c2C#N)cn1C` (centres unmarked) [Compound 413], for which the IC50 in test [1] was at most 10 nM; in test [2], at most 100 nM.

Take `CCc1ccc(-c2cc3c(N4CCN(C(=O)C5CC5)CC4)ccnc3[nH]2)cc1` [Compound 52]: the IC50 lay within 10 to 50 nM in test [1] and 100 to 500 nM in test [2].

As to `CC(C)Oc1ccc(-c2cc3c(N4CCN(C(=O)C5CC5)CC4)ccnc3[nH]2)cc1` [Compound 194], the IC50 in test [1] is at most 10 nM; in test [2] it was at most 100 nM.

For `Cn1cnc(-c2[nH]c3nccc(N4CCN(C(=O)OCC(F)F)CC4)c3c2C#N)c1` [Compound 257], the IC50 in test [1] is at most 10 nM; in test [2], at most 100 nM.

For `Cn1cc(-c2[nH]c3nccc(N4CCN(C(=O)O[C@H]5C[C@H](F)C5)CC4)c3c2Cl)cn1` [Compound 340], the IC50 in test [1] was at most 10 nM; in test [2], at most 100 nM.

With `O=C(OC1COC1)N1CCN(c2ccnc3[nH]c(-c4cnn(C5COC5)c4)cc23)CC1` [Compound 300], the values for the IC50 in test [1] and in test [2] were at most 10 nM and 100 to 500 nM, respectively.

For `N#Cc1ccc(-c2cc3c(N4CCN(C(=O)C5CC5)CC4)ccnc3[nH]2)cc1` [Compound 45], the values for the IC50 in test [1] and in test [2] were at most 10 nM and at most 100 nM, respectively.

For `Cn1cc(-c2[nH]c3nccc(N4CCN(C(=O)O[C@H]5CCC5(F)F)CC4)c3c2C#N)cn1` [Compound 367], the IC50 in test [1] is at most 10 nM; in test [2] it was at most 100 nM.

With `O=C(C1CC1)N1CCN(c2ccnc3[nH]c(-c4ccc(OCCN5CCCC5)cc4)cc23)CC1` [Compound 421], the IC50 in test [1] is at most 10 nM; in test [2], at most 100 nM.

Turning to `Cn1cc(-c2cc3c(N4CCN(C(=O)O[C@H]5CC(F)(F)C5(F)F)CC4)ccnc3[nH]2)cn1` [Compound 401], the IC50 is at most 10 nM in test [1] and at most 100 nM in test [2].

Consider `CCN1CCC(c2ccc(-c3cc4c(N5CCN(C(=O)C6CC6)CC5)ccnc4[nH]3)cc2)C(F)(F)C1` (centres unmarked) [Compound 460], for which the results for the IC50 in test [1] and in test [2] were at most 10 nM and at most 100 nM, respectively.

Turning to `O=C(OC1COC1)N1CCN(c2ccnc3[nH]c(-c4cn([C@@H]5CCOC5)cn4)cc23)CC1` [Compound 358], the figures for the IC50 in test [1] and in test [2] were at most 10 nM and 100 to 500 nM, respectively.

Turning to `Cc1nc(-c2cc3c(N4CCN(C(=O)OC5COC5)CC4)ccnc3[nH]2)sc1C` [Compound 250], the IC50 in test [1] is at most 10 nM; in test [2], at most 100 nM.

In the case of `O=C(OC1COC1)N1CCN(c2ccnc3[nH]c(-c4cnn(C(F)F)c4)cc23)CC1` [Compound 279], the IC50 in test [1] is at most 10 nM; in test [2], at most 100 nM.

Consider `O=C(OC1COC1)N1CCN(c2ccnc3[nH]c(-c4cn(C5COC5)cn4)cc23)CC1` [Compound 301], for which the IC50 in test [1] is at most 10 nM; in test [2] it was 100 to 500 nM.

`CC(C)(O)c1nc(-c2cc3c(N4CCN(C(=O)OC5COC5)CC4)ccnc3[nH]2)cs1` [Compound 378]: the IC50 is at most 10 nM in test [1] and 100 to 500 nM in test [2].
